Data: US20100273651A1 (priority 2007, published 2010)
Where two headings read alike, the source gives them in different places.

Key:
Septoria tritici [1] = assay: Use example No. 3: activity against Septoria tritici in the microtiter test (Septtr); assay type: cell-based; conditions: relative growth vs active compound-free control (100%), 405 nm, day 7
Phakopsora pachyrhizi = assay: Use Example 1: curative activity against soybean rust, greenhouse (Phakpa K1); assay type: in vivo; conditions: soybean seedlings sprayed 24 h after inoculation, visual rating after 14 days, untreated 90
Method: (§1) The active compounds were prepared separately or jointly as a stock solution comprising 25 mg of active compound which was made up to 10 ml using a mixture of acetone and/or DMSO and the emulsifier Uniperolt EL (wetting agent having emulsifying and dispersing action based on ethoxylated alkyl phenols) in a volume ratio of solvent/emulsifier of 99:1. The mixture was then made up to 100 ml with water. This stock solution was diluted with the solvent/emulsifier/water mixture described to give the concentration of active compounds stated below. Alternatively, the active compounds were used as a commercial finished formulation and diluted with water to the concentration of active compounds stated.
Leaves of potted soybean seedlings were inoculated with a spore suspension of soybean rust (Phakpsora pachyrhizi). The pots were then placed in a chamber with high atmospheric humidity (90 to 95%) and at 23 to 27° C. for 24 hours. During this time, the spores germinated and the germ tubes penetrated into the leaf tissue. The infected plants were then sprayed to runoff point with the active compound solution described above at the active compound concentration stated below. After the spray coating had dried on, the test plants were cultivated in a greenhouse at temperatures between 23 and 27° C. and 60 to 80% relative atmospheric humidity for 14 days. The extent of the rust fungus development on the leaves was then determined visually in percent infection.

Septoria tritici [2] = assay: Use Example 2: protective activity against Septoria leaf spot of wheat, greenhouse (Septtr P2); assay type: in vivo; conditions: wheat seedlings inoculated 2 days after spraying, % infection of total leaf area after 21 days, untreated 90
Method: as §1
Leaves of potted wheat seedlings were sprayed to runoff point with an aqueous suspension having the active compound concentration stated below. 2 days after the spray coating had dried on, they were inoculated with an aqueous spore suspension of Septoria tritici. The test plants were then placed in a greenhouse at temperatures between 20 and 24° C. and a relative atmospheric humidity close to 100% for 4 days and then at temperatures between 18 and 22° C. and an atmospheric humidity of about 70%. After 21 days, the extent of the development of the disease was determined visually in % infection of the total leaf area.

Pyricularia oryzae = assay type: cell-based
Leptno = assay: Comparative experiments: growth of Leptno (microtest, method not described); assay type: cell-based; conditions: comparative experiments against prior-art compound
[3] = relative growth vs active compound-free control (100%), 405 nm, day 7
[4] = comparative experiments against prior-art compound

1,2-bis[1-rel-(2S,3R)-2-(2-chlorophenyl)-3-(2,4-dichlorophenyl)oxiran-2-ylmethyl-1H-1,2,4-triazole-5-yl]disulfane [Compound 14]
Growth in % at 31 ppm for Septtr (Septoria tritici [1]): 4%

1-[rel-(2S,3R)-2-(2-chlorophenyl)-3-(2,4-dichlorophenyl)oxiran-2-ylmethyl]-1H-1,2,4-triazole-5(4H-6-thione [Compound 2]
Infection in % at 150 ppm for Phakpa K1 (Phakopsora pachyrhizi): 3%
Infection in % at 150 ppm for Septtr P2 (Septoria tritici [2]): 10%
Growth in % at 31 ppm for Pyrior (Pyricularia oryzae; [3]): 5%

S=c1[nH]cnn1C[C@]1(c2ccccc2)O[C@@H]1c1ccc(Cl)c(Cl)c1Cl (relative stereo) [Compound 4, 1-[rel-(2S,3R)-2-phenyl-3-(2,3,4-trichlorophenyl)oxiran-2-ylmethyl]-1H-1,2,4-triazole-5(4H)-thione]
Infection in % at 150 ppm for Phakpa K1 (Phakopsora pachyrhizi): 0%
Infection in % at 150 ppm for Septtr P2 (Septoria tritici [2]): 15%

CSc1ncnn1C[C@]1(c2ccccc2Cl)O[C@@H]1c1ccc(Cl)cc1Cl (relative stereo) [Compound 5, 1-[rel-(2S,3R)-2-(2-chlorophenyl)-3-(2,4-dichlorophenyl)oxiran-2-ylmethyl]-5-(methylthio)-1H-1,2,4-triazole]
Growth in % at 31 ppm for Septtr (Septoria tritici [1]): 0%
Growth in % at 31 ppm for Pyrior (Pyricularia oryzae; [4]): 0%

CSc1ncnn1C[C@]1(c2ccc(F)cc2)O[C@@H]1c1cccc(Cl)c1F (relative stereo) [Compound 7, 1-[rel-(2S,3R)-3-(3-chloro-2-fluorophenyl)-2-(4-fluorophenyl)oxiran-2-ylmethyl]-5-(methylthio)-1,2,4-triazole]
Infection in % at 600 ppm for Phakpa K1 (Phakopsora pachyrhizi; 600 ppm): 0%

CS(=O)(=O)c1ncnn1C[C@]1(c2ccccc2Cl)O[C@@H]1c1ccc(Cl)cc1Cl (relative stereo) [Compound 8, 1-[rel-(2S,3R)-2-(2-chlorophenyl)-3-(2,4-dichlorophenyl)-oxiran-2-ylmethyl]-5-(methylsulfonyl)-1H-1,2,4-triazole]
Growth in % at 31 ppm for Pyrior (Pyricularia oryzae; [3]): 8%

CC(=O)Sc1ncnn1C[C@]1(c2ccccc2Cl)O[C@@H]1c1ccc(Cl)cc1Cl (relative stereo) [Compound 9, S-1-[rel-(2S,3R)-2-(2-chlorophenyl)-3-(2,4-dichorophenyl)oxiran-2-ylmethyl]-1H-1,2,4-triazole-5-ylethanethioate]
Growth in % at 31 ppm for Pyrior (Pyricularia oryzae; [3]): 1%

CC(=O)Sc1ncnn1C[C@]1(c2ccccc2)O[C@@H]1c1ccc(Cl)c(Cl)c1Cl (relative stereo) [Compound 10, S-1-[rel-(2S,3R)-2-phenyl)-3-(2,3,4-trichlorophenyl)oxiran-2-ylmethyl]-1H-1,2,4-triazole-5-yl ethanethioate]
Growth in % at 31 ppm for Septtr (Septoria tritici [1]): 5%

COC(=O)Sc1ncnn1C[C@]1(c2ccccc2Cl)O[C@@H]1c1ccc(Cl)cc1Cl (relative stereo) [Compound 11, S-{2-[2-(2-chlorophenyl)-3-(2,4-dichlorophenyl)oxiranylmethyl]-2H-[1,2,4]triazole-3-yl}methyl rel-(2S,3R)-thiocarbonate]
Growth in % at 31 ppm for Pyrior (Pyricularia oryzae; [3]): 3%

N#CSc1ncnn1C[C@]1(c2ccccc2Cl)O[C@@H]1c1ccc(Cl)cc1Cl (relative stereo) [Compound 12, 1-[rel-(2S,3R)-2-(2-chlorophenyl)-3-(2,4-dichlorophenyl)oxiran-2-ylmethyl]-5-thlocyanato-1H-1,2,4-triazole]
Infection in % at 150 ppm for Phakpa K1 (Phakopsora pachyrhizi): 0%
Infection in % at 150 ppm for Septtr P2 (Septoria tritici [2]): 10%

[Na+].[S-]c1ncnn1C[C@]1(c2ccccc2Cl)O[C@@H]1c1ccc(Cl)cc1Cl (relative stereo) [Compound 13, sodium rel-(2S,3R)-2-(2-chlorophenyl)-3-(2,4-dichlorophenyl)oxiran-2-ylethyl]-1H-[1,2,4]triazole-5-thiolate]
Growth in % at 31 ppm for Pyrior (Pyricularia oryzae; [3]): 19%
Growth in % at 31 ppm for Leptno (Leptno): 19%

CSc1ncnn1C[C@]1(c2ccccc2Cl)O[C@@H]1c1ccccc1Cl [WO9638440, p. 14 (5th compound), reference compound]
Growth in % at 31 ppm for Pyrior (Pyricularia oryzae; [4]): 83%

[Na+].[S-]c1ncnn1C[C@]1(c2ccccc2Cl)O[C@@H]1c1ccccc1Cl [WO9741107, p. 50 (5th compound), reference compound]
Growth in % at 31 ppm for Leptno (Leptno): 51%
